Experimental data from ChEMBL document CHEMBL1201862, “PubChem BioAssay data set” (2004).
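Cells were grown in 96-well plates and exposed to each compound for 48 hours at five concentrations; endpoints were interpolated linearly between bracketing concentrations, or set to the highest concentration if not reached. GI50 marks 50% less growth.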 Calls of active or inactive are those of the source. No stated cut-off is given here; in the data, active = GI50 up to about 1.1 µM and inactive = higher.

Columns and labels:
Test in all cases: DTP human tumour cell line panel, 48 h
ACHN = system: ACHN
BT-549 = system: BT-549
HCC 2998 = system: HCC 2998
HCT-116 = system: HCT-116
HCT-15 = system: HCT-15
HL-60 = system: HL-60
HOP-62 = system: HOP-62
K562 = system: K562
MDA-MB-231 = system: MDA-MB-231
NCI-H460 = system: NCI-H460
NCI-H522 = system: NCI-H522
NCI/ADR-RES = system: NCI/ADR-RES
OVCAR-5 = system: OVCAR-5
OVCAR-8 = system: OVCAR-8
SF-268 = system: SF-268
SK-MEL-2 = system: SK-MEL-2
SK-OV-3 = system: SK-OV-3
U-251 = system: U-251
UACC-62 = system: UACC-62
UO-31 = system: UO-31

Row | Structure (SMILES) | GI50 (ACHN) | GI50 (BT-549) | GI50 (HCC 2998) | GI50 (HCT-116) | GI50 (HCT-15) | GI50 (HL-60) | GI50 (HOP-62) | GI50 (K562) | GI50 (MDA-MB-231) | GI50 (NCI-H460) | GI50 (NCI-H522) | GI50 (NCI/ADR-RES) | GI50 (OVCAR-5) | GI50 (OVCAR-8) | GI50 (SF-268) | GI50 (SK-MEL-2) | GI50 (SK-OV-3) | GI50 (U-251) | GI50 (UACC-62) | GI50 (UO-31)
1 | CCOC(=O)Nc1ccc(S(=O)(=O)Nn2cnnc2)cc1 | 81.3 µM (inactive) | 53.5 µM (inactive) | 33.8 µM (inactive) | 30.1 µM (inactive) | 50.1 µM | 38 µM (inactive) | 51.6 µM (inactive) | 27.2 µM (inactive) | 76.6 µM (inactive) | 50 µM (inactive) | 48.1 µM (inactive) | 37.1 µM (inactive) | > 100 µM (inactive) | > 100 µM (inactive) | 83.2 µM (inactive) | 72.6 µM (inactive) | 62.7 µM (inactive) | 44.3 µM (inactive) | 33.8 µM (inactive) | 60.1 µM (inactive)
2 | N#Cc1cc2cc3c4c(c2oc1=O)CCCN4CCC3 | > 100 µM (inactive) | > 100 µM (inactive) | > 100 µM (inactive) | > 100 µM (inactive) | > 100 µM | > 100 µM (inactive) | > 100 µM (inactive) | > 100 µM (inactive) | > 100 µM (inactive) | > 100 µM (inactive) | > 100 µM (inactive) | > 100 µM (inactive) | > 100 µM (inactive) | > 100 µM (inactive) | > 100 µM (inactive) | > 100 µM (inactive) | > 100 µM (inactive) | > 100 µM (inactive) | > 100 µM (inactive) | > 100 µM (inactive)
3 | COc1cc(C2SCC(=O)N2c2ccc(NC(C)=O)cc2)cc(OC)c1OC (configuration not stated) | > 100 µM (inactive) | 36.6 µM (inactive) | > 100 µM (inactive) | 69.7 µM (inactive) | 94.2 µM | > 100 µM (inactive) |  | > 100 µM (inactive) | > 100 µM (inactive) | > 100 µM (inactive) | 71.4 µM (inactive) | 88.3 µM (inactive) | > 100 µM (inactive) | 77.1 µM (inactive) | > 100 µM (inactive) | > 100 µM (inactive) | > 100 µM (inactive) | > 100 µM (inactive) | 25.5 µM (inactive) | > 100 µM (inactive)
4 | COc1ccc(P2(=S)SP(=S)(c3ccc(Cl)cc3)S2)cc1 (configuration not stated) | > 100 µM (inactive) | > 100 µM (inactive) | > 100 µM (inactive) | > 100 µM (inactive) | > 100 µM | > 100 µM (inactive) | > 100 µM (inactive) |  | > 100 µM (inactive) | > 100 µM (inactive) | > 100 µM (inactive) | > 100 µM (inactive) | > 100 µM (inactive) | > 100 µM (inactive) | > 100 µM (inactive) | > 100 µM (inactive) | > 100 µM (inactive) | > 100 µM (inactive) | > 100 µM (inactive) | > 100 µM (inactive)
5 | C=C(C(=O)OC)N1C(=O)CC(C)C1=O (configuration not stated) | 2.83 µM (inactive) | 14.6 µM (inactive) | 16.1 µM (inactive) | 6.67 µM (inactive) | 7.45 µM | 1.37 µM (inactive) | 17.5 µM (inactive) | 2.87 µM (inactive) | 17.6 µM (inactive) | 18.1 µM (inactive) | 1.9 µM (inactive) | 15.6 µM (inactive) | 15.1 µM (inactive) | 15.3 µM (inactive) | 16.7 µM (inactive) | 16.9 µM (inactive) | 35.7 µM (inactive) | 17.4 µM (inactive) | 15.2 µM (inactive) | 13.1 µM (inactive)
6 | Fc1ccc2nc3n(c2c1)C(c1c(F)cccc1F)SC3 (configuration not stated) | 67.9 µM (inactive) | 70 µM (inactive) | > 100 µM (inactive) | 24.5 µM (inactive) | 51.8 µM | 17.7 µM (inactive) | > 100 µM (inactive) |  | 72.6 µM (inactive) | 44 µM (inactive) | 28.1 µM (inactive) | 31.6 µM (inactive) | 8.69 µM (inactive) | 65.6 µM (inactive) | > 100 µM (inactive) | 96.8 µM (inactive) | 54.8 µM (inactive) | 76.4 µM (inactive) | 82.4 µM (inactive) | 30.9 µM (inactive)
7 | NC(=O)c1cnc2sc3ccccc3n2c1=O | > 100 µM (inactive) | > 100 µM (inactive) | > 100 µM (inactive) | > 100 µM (inactive) | > 100 µM | > 100 µM (inactive) | > 100 µM (inactive) | > 100 µM (inactive) | > 100 µM (inactive) | > 100 µM (inactive) | 74 µM (inactive) | > 100 µM (inactive) | > 100 µM (inactive) | > 100 µM (inactive) | > 100 µM (inactive) | > 100 µM (inactive) | > 100 µM (inactive) |  | > 100 µM (inactive) | 77.1 µM (inactive)
8 | CCOC(=O)CC(C)C(C#N)(OP1(=O)OC(c2ccccc2)C(C)N1C)c1ccccc1 (configuration not stated) | 44.1 µM (inactive) | 55.1 µM (inactive) | 36 µM (inactive) | 50.2 µM (inactive) | 43.7 µM | 34.9 µM (inactive) | > 100 µM (inactive) | 32.1 µM (inactive) | 59.7 µM (inactive) | 47.4 µM (inactive) | 62.5 µM (inactive) | 39.5 µM (inactive) | > 100 µM (inactive) | 46.1 µM (inactive) | > 100 µM (inactive) | 34.1 µM (inactive) | 86.7 µM (inactive) | 49 µM (inactive) | 58.7 µM (inactive) | 35.4 µM (inactive)
9 | CCOC(=O)CC/C(C)=N\n1c(Cc2ccc(Cl)cc2)n[nH]c1=O | > 100 µM (inactive) | > 100 µM (inactive) | > 100 µM (inactive) | > 100 µM (inactive) | > 100 µM | > 100 µM (inactive) | > 100 µM (inactive) | > 100 µM (inactive) | > 100 µM (inactive) | 86.1 µM (inactive) | > 100 µM (inactive) | > 100 µM (inactive) | 14.3 µM (inactive) | > 100 µM (inactive) | > 100 µM (inactive) | > 100 µM (inactive) |  | > 100 µM (inactive) | > 100 µM (inactive) | > 100 µM (inactive)
10 | NC1C/C(=N\O)c2c(I)sc(I)c21 (configuration not stated) | 18.7 µM (inactive) | 15.9 µM (inactive) | 20.1 µM (inactive) | 2.86 µM (inactive) | 13.4 µM | 4.23 µM (inactive) | 18.2 µM (inactive) | 8.04 µM (inactive) | 21.3 µM (inactive) | 21.3 µM (inactive) | 1.61 µM (inactive) | 18.4 µM (inactive) | 15.7 µM (inactive) | 13.4 µM (inactive) | 17.7 µM (inactive) | 17.5 µM (inactive) | 16.4 µM (inactive) | 18.3 µM (inactive) | 17.3 µM (inactive) | 13 µM (inactive)
11 | O[C@@H]1C[C@H]2N3CC[C@@]2(c2cc4c(cc2C3)OCO4)[C@H]2O[C@@H]12 | > 100 µM (inactive) | > 100 µM (inactive) | > 100 µM (inactive) | > 100 µM (inactive) | > 100 µM | > 100 µM (inactive) | > 100 µM (inactive) | > 100 µM (inactive) | > 100 µM (inactive) | > 100 µM (inactive) | > 100 µM (inactive) | > 100 µM (inactive) | > 100 µM (inactive) | > 100 µM (inactive) | > 100 µM (inactive) | > 100 µM (inactive) | > 100 µM (inactive) | > 100 µM (inactive) | > 100 µM (inactive) | > 100 µM (inactive)
12 | COc1c(Cl)c(=O)oc2ccc(Cl)cc12 | > 100 µM (inactive) | > 100 µM (inactive) | > 100 µM (inactive) | > 100 µM (inactive) | > 100 µM | > 100 µM (inactive) | > 100 µM (inactive) | > 100 µM (inactive) | > 100 µM (inactive) | > 100 µM (inactive) | > 100 µM (inactive) | > 100 µM (inactive) | > 100 µM (inactive) | > 100 µM (inactive) | > 100 µM (inactive) | > 100 µM (inactive) | > 100 µM (inactive) | 60.7 µM (inactive) | > 100 µM (inactive) | > 100 µM (inactive)
13 | CC(=O)O[C@H]1CCn2c3c(c(C)c21)C(=O)C(N1CC1)=C(C)C3=O | > 10 µM (inactive) | > 10 µM (inactive) | > 10 µM (inactive) | > 10 µM (inactive) | > 10 µM | > 10 µM (inactive) | 5.2 µM (inactive) | > 10 µM (inactive) | > 10 µM (inactive) | 3.52 µM (inactive) | > 10 µM (inactive) | > 10 µM (inactive) | > 10 µM (inactive) | > 10 µM (inactive) | > 10 µM (inactive) | > 10 µM (inactive) | > 10 µM (inactive) | > 10 µM (inactive) | 9.04 µM (inactive) | 
14 | Cc1cn([C@@H]2C[C@H]2CO)c(=O)[nH]c1=O | > 100 µM (inactive) | > 100 µM (inactive) | > 100 µM (inactive) | > 100 µM (inactive) | > 100 µM | > 100 µM (inactive) | > 100 µM (inactive) | > 100 µM (inactive) | > 100 µM (inactive) | > 100 µM (inactive) | > 100 µM (inactive) | > 100 µM (inactive) | > 100 µM (inactive) | > 100 µM (inactive) | > 100 µM (inactive) | > 100 µM (inactive) |  | > 100 µM (inactive) | > 100 µM (inactive) | 80.4 µM (inactive)
15 | O=C(O)/C=N/NC(=S)NC1CCCCC1 | > 100 µM (inactive) | > 100 µM (inactive) | > 100 µM (inactive) | > 100 µM (inactive) | > 100 µM | > 100 µM (inactive) | > 100 µM (inactive) | > 100 µM (inactive) | > 100 µM (inactive) | > 100 µM (inactive) | > 100 µM (inactive) | > 100 µM (inactive) | > 100 µM (inactive) | > 100 µM (inactive) |  | > 100 µM (inactive) | > 100 µM (inactive) | > 100 µM (inactive) | > 100 µM (inactive) | > 100 µM (inactive)
